The numbers were not newly measured in PubChem BioAssay AID493017, which cites them from elsewhere.

Molecules are shown by their SMILES.

The target of data set [1] is Estrogen receptor (Homo sapiens) (UniProt P03372). The experiment in a line: PubChem AID 493017. To be noted: WOMBAT literature affinities, multiple human targets, ERalpha, gene ESR1, NCBI gene 2099; for Kd: binding affinity Kd; for Ki: binding affinity Ki.
Data set [2] concerns WOMBAT literature affinities, multiple human targets. The experiment in a line: PubChem AID 493017.
Where [3] appears, read: HIV-1 RT, gene HIV-1 reverse transcriptase.

Estrogen receptor (Homo sapiens), sequence (P03372 whole entry, looked up): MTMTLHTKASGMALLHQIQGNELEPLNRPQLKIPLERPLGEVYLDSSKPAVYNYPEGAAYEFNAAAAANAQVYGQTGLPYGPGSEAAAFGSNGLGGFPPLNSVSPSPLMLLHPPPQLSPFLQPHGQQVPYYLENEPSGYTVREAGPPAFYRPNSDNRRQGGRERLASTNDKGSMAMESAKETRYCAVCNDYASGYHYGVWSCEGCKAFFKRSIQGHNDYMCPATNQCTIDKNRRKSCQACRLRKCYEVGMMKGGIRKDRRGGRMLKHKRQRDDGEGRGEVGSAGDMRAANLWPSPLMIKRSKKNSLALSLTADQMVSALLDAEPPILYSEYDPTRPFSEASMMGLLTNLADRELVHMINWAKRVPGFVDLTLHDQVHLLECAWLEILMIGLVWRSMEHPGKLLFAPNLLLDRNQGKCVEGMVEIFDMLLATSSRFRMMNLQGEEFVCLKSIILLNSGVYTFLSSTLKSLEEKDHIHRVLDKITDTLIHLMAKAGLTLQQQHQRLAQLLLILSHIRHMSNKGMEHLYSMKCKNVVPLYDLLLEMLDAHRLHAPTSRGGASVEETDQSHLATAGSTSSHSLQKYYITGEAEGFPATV

For `CCNC(=O)CC1C[C@]2(C)C(O)CCC2C2CCc3cc(O)ccc3C12` (some centres undefined), in data set [1], the IC50 was 1800 nM.
`O=C1OC(CCc2ccccc2)(c2ccccc2)CC(O)=C1SCCc1ccccc1` (centres undefined): the IC50 in data set [2] (HIV-1 P, gene HIV-1 protease) is 51 nM.
As to `O=C(c1ccc(OCCN2CCCCC2)cc1)c1c(-c2ccc(O)cc2)sc2ccc(O)cc12`, the IC50 in data set [1] was 160 nM.
Turning to `C[C@]12CC(O)C3c4ccc(O)cc4CCC3C1CCC2O` (some centres undefined), the Kd in data set [1] is 16.1 nM.
As for `O=c1c2cc(O)ccc2c2ccc3cc(O)ccc3c2n1-c1ccc(OCCN2CCCCC2)cc1`, in data set [1], the Kd was 3000 nM.
Turning to `CCCC1(c2ccccc2)CC(O)=C(SCCc2ccccc2)C(=O)O1` (centres undefined), the IC50 in data set [2] (HIV-1 P, gene HIV-1 protease) was 5100 nM.
On to `CCC1=C(c2ccc(O)cc2)C(C(=O)Nc2ccc(OCCN(C)C)cc2)c2cc(O)ccc21` (centres undefined), for which the Ki in data set [1] is 1420 nM.
`Oc1ccc2c(c1)CCC21C=C(c2ccc(OCCN3CCCCC3)cc2)c2cc(O)ccc21` (centres undefined): the Ki in data set [1] was 25.3 nM.
In the case of `CCCc1c(-c2ccc(O)cc2)nn(-c2ccc(O)cc2)c1C1CCCC1`, the Kd in data set [1] was 8300 nM.
As to `CC1O[C@](C#CC2CC2)(C(F)(F)F)c2cc(Cl)ccc2NC1=O` (some centres undefined), the IC50 in data set [2] (setting [3]) was 249 nM.
For the molecule `COc1ccc2c(c1)CN(c1ccc(OCCN3CCCCC3)cc1)C1=C2CCc2cc(OC)ccc21`, the Kd in data set [1] is 3000 nM.
Consider `O=C(NC1c2ccccc2CC1O)C(Cc1ccccc1)CC(O)CC(Cc1ccccc1)C(=O)NC1c2ccccc2CC1O` (centres undefined), for which the IC50 in data set [2] (HIV-1 P, gene HIV-1 protease) was 0.69 nM.
Take `CCCc1cc(=O)oc2c3c(c4c(c12)OC(C)(C)C=C4)OC(CC)C(C)C3O` (centres undefined): the IC50 in data set [2] (setting [3]) was 3200 nM.
As for `O=C1c2ccccc2C(=O)N1CCOC(=S)N(C(=O)c1cccnc1Cl)c1ccc(Cl)cc1`, the IC50 in data set [2] (setting [3]) was 2000 nM.
On to `CC1c2ccc(O)cc2C2CC1c1cc(O)ccc1C2C` (centres undefined), for which the Kd in data set [1] was 4290 nM.
As for `Oc1ccc2nn(-c3ccccc3)c(Cl)c2c1`, in data set [1], the IC50 is 1330 nM.
In the case of `O=C(O)c1ccc(C2=C(c3ccc(O)cc3)Cc3cc(O)ccc32)cc1`, in data set [1], the Ki is 2850 nM.
For `CCC(=C(c1ccccc1)c1cnn(OCCN(C)C)c1)c1ccccc1`, the IC50 in data set [1] was 2800 nM.
Turning to `COC(=O)c1c(Br)c(OC)c2c(c1-c1c3c(c(OC)c(Br)c1C(=O)OC)OCO3)OCO2`, the IC50 in data set [2] (setting [3]) is 1900 nM.
For the molecule `CCc1c(Sc2cc(C)cc(C)c2)n(CC=Cc2ccco2)c(=O)[nH]c1=O`, in data set [2] (setting [3]), the IC50 was 40 nM.
With `CCC1(CC)OC(=O)Nc2ccc(Cl)cc21`, in data set [2] (setting [3]), the IC50 is 16.5 nM.
Take `Cc1c(Sc2ccccc2)n(CC=Cc2cccnc2)c(=O)[nH]c1=O`: in data set [2] (setting [3]), the IC50 was 100 nM.
Take `CCOC(=O)c1cccn1S(=O)(=O)c1cc(C)ccc1[N+](=O)[O-]`: in data set [2] (setting [3]), the IC50 is 5000 nM.
As to `CSCCC(NC(=O)C(CO)N(Cc1ccccc1)Cc1ccccc1)C(=O)NC(C)(C)C` (centres undefined), the IC50 in data set [2] (HIV-1 P, gene HIV-1 protease) was 2220 nM.
`O=C1Nc2ccc(Cl)cc2[C@@](C#CC2CC2)(C(F)(F)F)C1OCc1ccccc1` (some centres undefined): in data set [2] (setting [3]), the IC50 is 440 nM.
With `CC(C)(C)NC(=O)c1ccccc1CCC(O)Cc1ccc2ccccc2c1C(=O)NC(C)(C)C` (centres undefined), in data set [2] (HIV-1 P, gene HIV-1 protease), the IC50 was 1100 nM.
In the case of `CC(=O)NC(CO)C(=O)NC(CC(C)C)C(=O)NC(CC(N)=O)C(=O)NC(Cc1ccccc1)C(O)CN1CCCC1C(=O)OC(C)(C)C` (centres undefined), the IC50 in data set [2] (HIV-1 P, gene HIV-1 protease) was 14 nM.
With `Cc1c(Sc2cccc(O)c2)n(COCCO)c(=O)[nH]c1=O`, in data set [2] (setting [3]), the IC50 was 82000 nM.
Regarding `CCC(=C(c1ccccc1)c1cnn(OCCCN(C)C)c1)c1cccs1`, the IC50 in data set [1] is 200 nM.
As to `O=c1oc(-c2ccccc2)cc(O)c1Sc1ccccc1`, the IC50 in data set [2] (HIV-1 P, gene HIV-1 protease) is 3100 nM.
For `Oc1ccc(-c2c(-c3ccccc3)nn3cccnc23)cc1`, in data set [1], the Ki was 2000 nM.
With `O=C1c2cc(O)ccc2C2CC1c1ccc(O)cc1C2=O`, in data set [1], the Kd was 5000 nM.
In the case of `Cc1nc2c(-c3ccccc3)c(-c3ccc(O)cc3)nn2c(C)c1C`, the Ki in data set [1] is 2000 nM.
Regarding `CC1(C)CC(c2ccc(O)cc2)=C(c2ccc(O)cc2)CC1(C)C`, the Kd in data set [1] was 2 nM.
For `CCc1nc(-c2ccc(O)cc2)c(-c2ccc(O)cc2)nc1CC`, the IC50 in data set [1] is 20.8 nM.
`Cc1cc(C)cc(Sc2c(C)c(=O)[nH]c(=O)n2COCCO)c1`: the IC50 in data set [2] (setting [3]) is 260 nM.
Take `CCC(=C(Cc1ccc(OCCN2CCOCC2)cc1)c1ccccc1)c1ccccc1`: the Ki in data set [1] was 2480 nM.
`CCCOCn1c(Sc2ccccc2)c(C)c(=O)[nH]c1=O`: the IC50 in data set [2] (setting [3]) is 3600 nM.
In the case of `CCc1nc(-c2ccc(O)cc2)c(-c2ccc(O)cc2)nc1-c1ccc(O)cc1`, the IC50 in data set [1] was 2.38 nM.
Consider `Oc1ccc(-n2cc3ccc(O)c(Br)c3n2)cc1`, for which the IC50 in data set [1] is 2000 nM.
In the case of `CCC1c2ccc(O)cc2C(C)C1c1ccc(O)cc1` (centres undefined), the Kd in data set [1] was 15 nM.
Consider `CC(=O)NC(C(=O)NC(Cc1ccccc1)C(O)C(Cc1ccccc1)NC(=O)C(NC(C)=O)C(C)C)C(C)C` (centres undefined), for which the IC50 in data set [2] (HIV-1 P, gene HIV-1 protease) is 12 nM.
In the case of `Oc1ccc(-n2cc3ccccc3n2)cc1`, in data set [1], the IC50 is 2000 nM.
Regarding `Oc1ccc2c3c(sc2c1)Cc1cccc(O)c1C3c1ccc(OCCN2CCCCC2)cc1` (centres undefined), the Ki in data set [1] was 2.6 nM.

In general, IC50 refers to the concentration that inhibits the measured activity by half. In general, Kd refers to the concentration at which binding is half-saturated. As a reminder, the Ki is a dissociation constant, usually derived from enzyme kinetics or from competition with a known ligand.
